Results taken from ChEMBL document CHEMBL5053560, “Nanoparticular Inhibitors of Flavivirus Proteases from Zika, West Nile and Dengue Virus Are Cell-Permeable Antivirals” (ACS Med Chem Lett, 2021).

Columns and labels:
Genome polyprotein [1] = biological target: T1, Genome polyprotein (West Nile virus, UniProt P06935); test: Inhibition of C-terminal His-tagged WNV NSB2 (52 to 96 amino acids)-NS3 (1 to 184 amino acids) protease expressed in Escherichia coli BL21(DE3) using Boc-GRK-AMC as substrate measured by flourescence based plate reader assay
T1 sequence (P06935 1371-1501 limits assumed): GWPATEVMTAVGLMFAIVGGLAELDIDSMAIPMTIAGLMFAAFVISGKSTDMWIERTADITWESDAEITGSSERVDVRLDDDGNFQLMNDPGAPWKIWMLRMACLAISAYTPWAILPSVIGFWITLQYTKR
T1 sequence (P06935 1502-2120 limits assumed): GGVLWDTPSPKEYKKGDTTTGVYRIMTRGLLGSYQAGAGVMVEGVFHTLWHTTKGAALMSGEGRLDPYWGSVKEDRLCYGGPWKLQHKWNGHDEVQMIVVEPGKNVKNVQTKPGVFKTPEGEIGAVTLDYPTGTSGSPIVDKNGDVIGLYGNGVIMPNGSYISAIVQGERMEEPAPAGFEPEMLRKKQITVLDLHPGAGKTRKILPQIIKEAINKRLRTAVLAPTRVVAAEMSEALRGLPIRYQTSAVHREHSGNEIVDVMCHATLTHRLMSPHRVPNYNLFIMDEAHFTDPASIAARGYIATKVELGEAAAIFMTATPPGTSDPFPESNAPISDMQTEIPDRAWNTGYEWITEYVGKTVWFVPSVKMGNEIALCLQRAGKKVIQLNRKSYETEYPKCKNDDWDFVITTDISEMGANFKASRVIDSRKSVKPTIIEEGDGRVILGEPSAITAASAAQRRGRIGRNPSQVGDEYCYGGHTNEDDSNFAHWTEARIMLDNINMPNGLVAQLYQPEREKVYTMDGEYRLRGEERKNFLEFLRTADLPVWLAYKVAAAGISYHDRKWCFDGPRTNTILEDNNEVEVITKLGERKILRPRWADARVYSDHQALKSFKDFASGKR

Genome polyprotein [2] = biological target: T1, Genome polyprotein; test: Competitive inhibition of C-terminal His-tagged WNV NSB2 (52 to 96 amino acids)-NS3 (1 to 184 amino acids) protease expressed in Escherichia coli BL21(DE3) using Boc-GRK-AMC as substrate measured by flourescence based plate reader assay
Nonstructural protein 3 [3] = biological target: T2, Nonstructural protein 3 (Zika virus, UniProt A0A024AXB9); test: Inhibition of C-terminal His-tagged ZIKV NSB2 (52 to 96 amino acids)-NS3 (1 to 184 amino acids) protease expressed in Escherichia coli BL21(DE3) preincubated for 10 mins followed by addition of Boc-GKR-AMC substrate and measured by flourescence based plate reader assay
T2 sequence (A0A024AXB9 whole entry, the tested form may be a part): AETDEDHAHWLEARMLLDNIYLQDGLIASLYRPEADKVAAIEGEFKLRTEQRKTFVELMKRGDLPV

Nonstructural protein 3 [4] = biological target: T2, Nonstructural protein 3; test: Competitive inhibition of C-terminal His-tagged ZIKV NSB2 (52 to 96 amino acids)-NS3 (1 to 184 amino acids) protease expressed in Escherichia coli BL21(DE3) preincubated for 10 mins followed by addition of Boc-GKR-AMC substrate and measured by flourescence based plate reader assay
Genome polyprotein [5] = biological target: T3, Genome polyprotein (dengue virus type 2, UniProt P29990); test: Inhibition of recombinant N-terminal His-tagged DENV NS2B-NS3 protease expressed in Escherichia coli BL21(DE3) using Boc-GRR-AMC as substrate measured by flourescence based plate reader assay
T3 sequence (P29990 1346-1475 limits assumed): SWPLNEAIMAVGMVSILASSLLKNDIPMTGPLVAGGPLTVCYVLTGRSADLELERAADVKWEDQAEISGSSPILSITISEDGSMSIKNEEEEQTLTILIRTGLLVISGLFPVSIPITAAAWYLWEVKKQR
T3 sequence (P29990 1476-2093 limits assumed): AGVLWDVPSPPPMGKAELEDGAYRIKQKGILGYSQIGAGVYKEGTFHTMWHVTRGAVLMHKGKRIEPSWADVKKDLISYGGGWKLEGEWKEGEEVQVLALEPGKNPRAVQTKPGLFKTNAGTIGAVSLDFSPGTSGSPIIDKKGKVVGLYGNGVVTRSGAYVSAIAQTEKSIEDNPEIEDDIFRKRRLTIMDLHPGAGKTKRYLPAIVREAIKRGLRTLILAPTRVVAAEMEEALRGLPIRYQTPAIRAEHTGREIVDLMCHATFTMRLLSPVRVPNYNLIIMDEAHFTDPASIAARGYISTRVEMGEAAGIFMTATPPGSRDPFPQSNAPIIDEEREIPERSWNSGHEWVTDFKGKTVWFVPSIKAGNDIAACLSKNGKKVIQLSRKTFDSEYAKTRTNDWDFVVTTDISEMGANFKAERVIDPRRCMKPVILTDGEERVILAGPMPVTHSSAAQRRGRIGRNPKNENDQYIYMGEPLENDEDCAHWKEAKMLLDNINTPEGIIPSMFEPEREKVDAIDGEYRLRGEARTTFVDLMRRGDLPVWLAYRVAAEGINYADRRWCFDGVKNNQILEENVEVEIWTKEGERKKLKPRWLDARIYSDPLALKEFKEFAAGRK

Genome polyprotein [6] = biological target: T3, Genome polyprotein; test: Competitive inhibition of recombinant N-terminal His-tagged DENV NS2B-NS3 protease expressed in Escherichia coli BL21(DE3) using Boc-GRR-AMC as substrate measured by flourescence based plate reader assay
Zika virus = test: Antiviral activity against Zika virus infected in human Huh-7 cells assessed as inhibition of viral replication at 12.5 uM measured after 48 hrs by Renilla reporter based luciferase assay relative to control; format: functional
West Nile virus = test: Antiviral activity against West Nile virus infected in human Huh-7 cells assessed as inhibition of viral replication at 12.5 uM measured after 48 hrs by plaque assay relative to control; format: functional

Row | SMILES | IC50 (Genome polyprotein [1]) | Ki (Genome polyprotein [2]) | IC50 (Nonstructural protein 3 [3]) | Ki (Nonstructural protein 3 [4]) | IC50 (Genome polyprotein [5]) | Ki (Genome polyprotein [6]) | inhibition at 12.5 µM (Zika virus) | inhibition at 12.5 µM (West Nile virus)
1 | N=C(N)N[C@H]1CC[C@H](CNC(=O)[C@H](CCCCN)NC(=O)[C@H](CCCCN)NC(=O)Cc2ccc(OCCCCS)cc2)CC1 | 460 nM | 343 nM | 125 nM | 79 nM | 17100 nM | 12700 nM |  | 
2 | NC(=O)c1ncn([C@@H]2O[C@H](CO)[C@@H](O)[C@H]2O)n1 [RIBAVIRIN] |  |  |  |  |  |  | 80% | 90%
